Results from US20100267765A1, “Pharmaceutical Compositions and Methods for CCR5 Antagonists” (priority 2007, published 2010).
One block for each compound: values may come before it.

Columns and labels:
Format in all cases: in vivo, human
[1] = system: LDL cholesterol; experiment: MERIT study: on-treatment fasting LDL cholesterol vs NCEP cutpoints; conditions: with Combivir
Source text: (§1) The MERIT study design included a fasting metabolic assessment at baseline and at Weeks 24 and 48 or at early study discontinuation, to evaluate the fasted lipid values in the MERIT study and their potential effect on cardiovascular risk.
(§2) For a 50% smoking rate scenario (which approximates to the smoking rate seen in the DAD Study-Friis-Møller N, et al. N Engl J Med 2003; 349:1993-2003), smoking status (yes/no) was randomly imputed to the study population 500 times, by sampling from a binomial distribution with a probability of success of 0.5. Smoking status was assumed to remain constant for the duration of the study.

[2] = system: total cholesterol/HDL ratio; experiment: MERIT study: total cholesterol/HDL ratio; conditions: with Combivir; ARV-naive R5 HIV-1 patients; P=0.005 between groups
Source text: as §1, §2

[3] = system: fasting lipid parameters; experiment: MERIT study: fasting lipoprotein profile (total cholesterol, HDL, LDL, triglycerides); conditions: for HDL cholesterol levels on treatment: 48 weeks
Source text: as §1, §2

[4] = MERIT study: 10-year coronary heart disease risk by Framingham equation; conditions: for Absolute CHD 10-year risk (mean [SD]): Framingham equation, simulated smoking rate 50%, with Combivir
Source text: as §2

[5] = system: LDL cholesterol; experiment: Example 1: fasting LDL cholesterol after 24 weeks, OBT plus maraviroc vs OBT plus placebo
Method: (§3) The eligible patients were randomised into three groups based on the drug regimens they received.
(§4) Prior to the first dose (Day 1), a fasting assessment was made, in which the following was measured and taken as the baseline measurement: total cholesterol, HDL, LDL, triglycerides, glucose and glycosolated haemoglobin.
(§5) After 24 weeks of treatment or early termination, the same lipid parameters (in particular HDL levels) were measured again.

[6] = system: HDL cholesterol; experiment: Example 1: fasting HDL cholesterol after 24 weeks, OBT plus maraviroc vs OBT plus placebo; conditions: for Numbers of individuals with maximum % increase in HDL cholesterol in range 10 to >30 (sum, within sensitivity range of assay) / Numbers of individuals with maximum % increase in HDL cholesterol relative to baseline 0-5% / Numbers of individuals with maximum % increase in HDL cholesterol relative to baseline 5-<10% / Numbers of individuals with maximum % increase in HDL cholesterol relative to baseline 10-<20% / Numbers of individuals with maximum % increase in HDL cholesterol relative to baseline 20-<30% / Numbers of individuals with maximum % increase in HDL cholesterol relative to baseline <0% / Numbers of individuals with maximum % increase in HDL cholesterol relative to baseline ≧30% / Mean % Change in HDL / Mean % difference from Group1 (placebo) (95% Confidence Interval) in HDL: 24 weeks
Method: as §3, §4
HDL as part of a lipid profile was measured by Covance laboratories (Indianapolis, Ind.).
as §5

[7] = system: HIV-1 (CXCR4 using viral population); experiment: Example 1: HIV-1 RNA viral load reduction after 24 weeks; conditions: for Treatment difference in VL (95% confidence interval) / Mean VL reduction: 24 weeks
Source text: The baseline HIV-1 RNA count was taken prior to the first dose (Day 1) and at multiple time points during the 24-week study period.

[8] = patients already above threshold at baseline excluded, P<0.0001
[9] = Group 2: OBT plus maraviroc 150 or 300 mg po QD, N = 63
[10] = Group 3: OBT plus maraviroc 150 or 300 mg po BID, N = 61
[11] = Group 2: OBT plus maraviroc QD, n = 45
[12] = Group 3: OBT plus maraviroc BID, n = 48

Number of patients who initiated LDL-lowering therapy during the study [1]: six
Relation of change in LDL cholesterol to baseline LDL cholesterol ([1]; FIG. 2b): directly related
Patients with high on-treatment LDL cholesterol level (≧160 mg/dL) at both Week 24 and Week 48 (%) ([1]; P=0.007): 2.9%
Patients with high on-treatment LDL cholesterol level (≧160 mg/dL) at both Week 24 and Week 48 (n/N) ([1]; P=0.007): 10/343
Patients who developed LDL cholesterol levels during the study that were ≧160 mg/dL (%) [1, 8]: 9%
Patients who developed LDL cholesterol levels during the study that were ≧160 mg/dL (n/N) [1, 8]: 31/343
Percentage of patients with increases in total cholesterol and LDL cholesterol levels at some point after baseline to ≧130 mg/dL ([3]; efavirenz compared with maraviroc, P<0.0001, FIG. 3b): greater percentage
Median maximum changes from baseline in total cholesterol, HDL cholesterol, LDL cholesterol and triglyceride levels ([3]; efavirenz group compared with maraviroc group, with Combivir, FIG. 1b): significantly greater
Absolute CHD 10-year risk (mean [SD]) ([4]; Week 24): 3.0%
Absolute CHD 10-year risk (mean [SD]) ([4]; Week 48): 3.3%
Relative risk of having a CHD event within 10 years ([4]; efavirenz group vs maraviroc group at Week 24 and Week 48, smoking rate 50%, FIG. 5b): consistently higher
Compound: O=C1Nc2ccc(Cl)cc2[C@@](C#CC2CC2)(C(F)(F)F)O1 [efavirenz]
Median decrease in the total cholesterol/HDL ratio [2]: −0.43
HDL cholesterol levels on treatment ([3]; with Combivir): improved

Compound: (N-{(1S)-3-[3-isopropyl-5-methyl-4H-1,2,4-triazole-4-yl]-exo-8-azabicyclo[3.2.1]oct-8-yl}-1-phenylpropyl)-4,4-difluorocyclohexanecarboxamide) [maraviroc]
Numbers of individuals with maximum % increase in LDL cholesterol in range 10 to >30 (sum, within sensitivity range of assay) [5, 9]: 20
Numbers of individuals with maximum % increase in LDL cholesterol relative to baseline 0-5% [5, 9]: 2
Numbers of individuals with maximum % increase in LDL cholesterol relative to baseline 5-<10% [5, 9]: 5
Numbers of individuals with maximum % increase in LDL cholesterol relative to baseline 10-<20% [5, 9]: 9
Numbers of individuals with maximum % increase in LDL cholesterol relative to baseline 20-<30% [5, 9]: 4
Numbers of individuals with maximum % increase in LDL cholesterol relative to baseline <0% [5, 9]: 11
Numbers of individuals with maximum % increase in LDL cholesterol relative to baseline ≧30% [5, 9]: 7
Numbers of individuals with maximum % increase in LDL cholesterol in range 10 to >30 (sum, within sensitivity range of assay) [5, 10]: 18
Numbers of individuals with maximum % increase in LDL cholesterol relative to baseline 0-5% [5, 10]: 4
Numbers of individuals with maximum % increase in LDL cholesterol relative to baseline 5-<10% [5, 10]: 1
Numbers of individuals with maximum % increase in LDL cholesterol relative to baseline 10-<20% [5, 10]: 5
Numbers of individuals with maximum % increase in LDL cholesterol relative to baseline 20-<30% [5, 10]: 3
Numbers of individuals with maximum % increase in LDL cholesterol relative to baseline <0% [5, 10]: 18
Numbers of individuals with maximum % increase in LDL cholesterol relative to baseline ≧30% [5, 10]: 10
LDL levels after treatment compared with placebo (Group 1) ([5]; Table 1a): no increase over placebo
Increase in HDL-C levels following treatment ([6]; 300 mg BID maraviroc, Tables 2a, 3a): clear dose-related increase
Numbers of individuals with maximum % increase in HDL cholesterol in range 10 to >30 (sum, within sensitivity range of assay) [6, 9]: 18
Numbers of individuals with maximum % increase in HDL cholesterol relative to baseline 0-5% [6, 9]: 6
Numbers of individuals with maximum % increase in HDL cholesterol relative to baseline 5-<10% [6, 9]: 4
Numbers of individuals with maximum % increase in HDL cholesterol relative to baseline 10-<20% [6, 9]: 7
Numbers of individuals with maximum % increase in HDL cholesterol relative to baseline 20-<30% [6, 9]: 2
Numbers of individuals with maximum % increase in HDL cholesterol relative to baseline <0% [6, 9]: 17
Numbers of individuals with maximum % increase in HDL cholesterol relative to baseline ≧30% [6, 9]: 9
Mean % Change in HDL [6, 11]: 13.1%
Mean % difference from Group1 (placebo) (95% Confidence Interval) in HDL [6, 11]: 10.8 (−3.4, 25.0) %
Numbers of individuals with maximum % increase in HDL cholesterol in range 10 to >30 (sum, within sensitivity range of assay) [6, 10]: 28
Numbers of individuals with maximum % increase in HDL cholesterol relative to baseline 0-5% [6, 10]: 5
Numbers of individuals with maximum % increase in HDL cholesterol relative to baseline 5-<10% [6, 10]: 1
Numbers of individuals with maximum % increase in HDL cholesterol relative to baseline 10-<20% [6, 10]: 9
Numbers of individuals with maximum % increase in HDL cholesterol relative to baseline 20-<30% [6, 10]: 8
Numbers of individuals with maximum % increase in HDL cholesterol relative to baseline <0% [6, 10]: 14
Numbers of individuals with maximum % increase in HDL cholesterol relative to baseline ≧30% [6, 10]: 11
Mean % Change in HDL [6, 12]: 17.4%
Mean % difference from Group1 (placebo) (95% Confidence Interval) in HDL [6, 12]: 15.1 (1.1, 29.1) %
Treatment difference in VL (95% confidence interval) ([7]; Group 2: OBT plus maraviroc QD vs Group 1 (placebo)): +0.06 log10 copies/mL
Mean VL reduction ([7]; Group 2: OBT plus maraviroc QD): −0.91 log10 copies/mL
Treatment difference in VL (95% confidence interval) ([7]; Group 3: OBT plus maraviroc BID vs Group 1 (placebo)): −0.23 log10 copies/mL
Mean VL reduction ([7]; Group 3: OBT plus maraviroc BID): −1.20 log10 copies/mL
Reduction in viral load (VL) in HIV patients with CXCR4 using viral population ([7]; after 24 weeks, vs Group 1): no statistically significant reduction
Median decrease in the total cholesterol/HDL ratio [2]: −0.54
HDL cholesterol levels on treatment ([3]; with Combivir): improved
